{"source": "patent US8597632B2", "about": "“Anionic oligosaccharide conjugates” (Glycan Biosciences LLC, priority 2008, dated 2013)", "key": {"eotaxin-2 (CCL24)": {"target": "T1, eotaxin-2 (CCL24) (Homo sapiens, UniProt O00175)", "T1 construct": "host or cells: E. coli", "T1 sequence (O00175 27-119)": "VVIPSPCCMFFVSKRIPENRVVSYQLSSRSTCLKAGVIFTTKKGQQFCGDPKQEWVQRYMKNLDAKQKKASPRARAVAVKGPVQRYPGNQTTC", "experiment": "BIAcore: inhibition of Eotaxin-2 binding to immobilized heparin", "conditions": "% relative to heparin concentration required to inhibit chemokine binding by 50%; heparin set at 100%", "excerpt": "(§1) The optical phenomenon of surface plasmon resonance is used to monitor physical interactions between molecules. Passing a solution of a potential protein ligand (e.g. IL-4, IL-5, eotaxin-1, eotaxin-2, IL-8 or MCP-1) over a sensor surface to which a target (e.g. heparin) is coupled monitors the real-time binding of protein ligands to the immobilized target. Detection is achieved by measuring refractive index changes very close to the sensor surface. When the refractive index is altered, the angle at which plasmon resonance occurs changes and this change directly correlates with the amount of protein interacting with the surface. A BIAcore 2000 is conveniently used. […]\n(§2) Biotinylated heparin is immobilized on the biosensor chip. […] Solutions containing potential protein ligands of interest are injected over the sensor chip surface, and the binding is measured in real time (Fernig, In: Proteoglycan protocols, Ed. R. V. Iozzo, Humana Press, Totowa, N.J., USA, 2001). Baculovirus expressed recombinant human IL-4 (rhIL-4) and baculovirus expressed recombinant human IL-5 (rhIL-5) readily bind to heparin immobilized by this method (see PCT/AU2005/000551). […] Similarly, recombinant human eotaxin-1 (CCL11) expressed in E. coli binds readily to immobilized heparin and binding is specific as there is little eotaxin binding to sensor chips lacking heparin (see 30544601 PCT glycan151). […]"}, "IL-8 (CXCL8)": {"target": "T2, IL-8 (CXCL8) (Homo sapiens, UniProt P10145)", "T2 construct": "host or cells: E. coli", "T2 sequence (P10145 21-99)": "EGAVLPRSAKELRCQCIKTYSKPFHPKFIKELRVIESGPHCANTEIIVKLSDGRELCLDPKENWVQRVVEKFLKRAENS", "experiment": "BIAcore: inhibition of IL-8 binding to immobilized heparin", "conditions": "% relative to heparin concentration required to inhibit chemokine binding by 50%; heparin set at 100%", "excerpt": "as §1, §2"}, "MCP-1 (CCL2)": {"target": "T3, MCP-1 (CCL2) (Homo sapiens, UniProt P13500)", "T3 construct": "host or cells: E. coli", "T3 sequence (P13500 24-99)": "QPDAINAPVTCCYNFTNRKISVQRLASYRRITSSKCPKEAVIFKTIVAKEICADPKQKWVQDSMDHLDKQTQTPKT", "experiment": "BIAcore: inhibition of MCP-1 binding to immobilized heparin", "conditions": "% relative to heparin concentration required to inhibit chemokine binding by 50%; heparin set at 100%", "excerpt": "as §1, §2"}, "[1]": {"target": "T4, recombinant human IL-4 (rhIL-4) (Homo sapiens, UniProt P05112)", "T4 construct": "host or cells: baculovirus expression system", "T4 sequence (P05112 25-153)": "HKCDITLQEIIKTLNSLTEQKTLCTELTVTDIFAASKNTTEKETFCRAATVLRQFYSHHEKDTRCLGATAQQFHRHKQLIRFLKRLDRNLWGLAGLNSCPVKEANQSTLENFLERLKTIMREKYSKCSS", "experiment": "BIAcore: inhibition of IL-4 binding to a heparin chip", "conditions": "End point heparin", "excerpt": "as §1, §2"}, "[2]": {"target": "T5, recombinant human IL-5 (rhIL-5) (Homo sapiens, UniProt P05113)", "T5 construct": "host or cells: baculovirus expression system", "T5 sequence (P05113 20-134)": "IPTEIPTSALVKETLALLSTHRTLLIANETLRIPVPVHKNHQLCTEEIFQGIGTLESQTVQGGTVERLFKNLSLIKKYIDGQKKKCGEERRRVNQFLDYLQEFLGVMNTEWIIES", "experiment": "BIAcore: inhibition of IL-5 binding to a heparin chip", "conditions": "Biotin-heparin", "excerpt": "as §1, §2"}, "Human leukocyte elastase": {"target": "T6, Human leukocyte elastase (Homo sapiens, UniProt P08246)", "T6 sequence (P08246 30-267)": "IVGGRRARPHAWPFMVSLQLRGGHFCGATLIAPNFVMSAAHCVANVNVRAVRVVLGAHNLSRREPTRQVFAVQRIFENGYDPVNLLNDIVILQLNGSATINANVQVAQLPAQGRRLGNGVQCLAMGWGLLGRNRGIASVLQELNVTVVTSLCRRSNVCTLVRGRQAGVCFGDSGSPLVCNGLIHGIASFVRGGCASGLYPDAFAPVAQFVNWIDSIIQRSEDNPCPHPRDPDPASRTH", "experiment": "Human leukocyte elastase fluorogenic substrate assay", "type": "biochemical", "conditions": "elastase 5 nM/well, MeOSuc-Ala-Ala-Pro-Val-amido-methylcoumarin 20 μM/well, pH 7.4, 37° C., 60 minutes; read-out: Inhibition of Elastase activity IC50", "procedure": "Elastase is a protein that is a potential target for the treatment of COPD. Elastase assays were performed in 96-well plastic microplates for easy quantification by the fluorescent plate reader. Human leukocyte elastase (5 nM/well) was incubated in the presence ofrabsence of sulfated polysaccharides, with the fluorogenic substrate MeOSuc-Ala-Ala-Pro-Val-amido-methylcoumarin (20 μM/well) in a sodium phosphate buffer, pH 7.4. The mixture was incubated at 37° C. for 60 minutes before the reaction was stopped by the addition of 10 μL/well of […] acetic acid and the mixture transferred to a 96-well microplate with fluorescence being measured using an excitation wavelength of 355 nm and an emission wavelength of 460 nm. Various concentrations of inhibitors were used to allow the calculation of the concentration of anionic oligosaccharide conjugate required to inhibit enzyme activity by 50% (IC50). […] The linked xylopentaose series were not very effective inhibitors of elastase activity. In this assay heparin has an IC50 of approximately 200 nM (Table 6)."}}, "data": [{"substance": "Heparin", "values": [{"measurement": "Concentration for 50% inhibition of Eotaxin-2 binding to heparin chip, as % of heparin's", "setting": "eotaxin-2 (CCL24)", "result": 100, "unit": "%"}, {"measurement": "Concentration for 50% inhibition of chemokine binding relative to heparin", "setting": "IL-8 (CXCL8)", "result": 100, "unit": "%"}, {"measurement": "IC50 relative to heparin (% of heparin IC50)", "setting": "MCP-1 (CCL2)", "result": 100, "unit": "%"}, {"measurement": "IC50", "setting": "[1]", "result": 3300, "unit": "nM"}, {"measurement": "IC50", "setting": "[2]", "result": 37, "unit": "nM"}, {"measurement": "IC50", "setting": "Human leukocyte elastase", "result": "~200", "unit": "nM"}]}]}
